Several values for one entry are separate records, joined by “and”; a condition that tells them apart may be missing. Equal entries are not always repeated.
What was measured:
Assay type in all cases: in vivo
[1] = test system: Matricaria chamomilla; assay: greenhouse post-emergence treatment, MATCH; conditions: MATCH
Outline: (§1)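 Foliar application to greenhouse-grown plants 3–15 cm tall in humus-containing loamy sand; response assessed on a 0–100 scale after 2–4 weeks, with Colby's E=X+Y−(X·Y/100) as the additive expectation.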

[2] = test system: Lolium multiflorum; assay: greenhouse post-emergence treatment, LOLMU; conditions: LOLMU
Outline: (§2)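 Plants were grown in pots of loamy sand with approximately 3.0% humus, either sown directly or transplanted as seedlings a few days before treatment, and sprayed with water-based treatments. They were kept at 10-25° C. or 20-35° C. depending on species and rated visually after 2 to 4 weeks on a 0–100 scale (100 = no emergence or complete destruction of above-ground parts).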

[3] = test system: Polygonum convolvulus; assay: greenhouse post-emergence treatment, POLCO; conditions: POLCO, solo Ex. 5 62.5 gai/ha
Outline: as §1

[4] = test system: Setaria viridis; assay: greenhouse post-emergence treatment, SETVI; conditions: SETVI
Outline: as §2

[5] = test system: Bromus sterilis; assay: greenhouse post-emergence treatment, BROST
Outline: as §2

[6] = test system: Brachiaria decumbens; assay: greenhouse post-emergence treatment, BRADC; conditions: BRADC
Outline: (§3)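 Seeds sown per species in pots of loamy sand; seedlings either grown in place or transplanted days before treatment. Post-emergence spray of water-based liquor at 3–15 cm height. Injury rated 0–100 over 2 to 4 weeks.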

[7] = test system: Ambrosia elatior; assay: greenhouse post-emergence treatment, AMBEL; conditions: 20 DAT, AMBEL
Outline: as §3

[8] = Ex. 5 solo, 62.5 gai/ha, 20 DAT
[9] = Table X8, 20 DAT, solo Ex. 5 125 gai/ha

O=C(O)c1nc(C2CC2)ncc1-c1ccccc1Cl [Ex. 5]
40%: % activity, solo application ([1]; 125 gai/ha, 20 DAT, Table X4) | % activity, solo application ([1]; 250 gai/ha, 20 DAT, Table X4) | % activity [1, 8] | % activity ([1]; 20 DAT, solo Ex. 5 125 gai/ha) | % activity ([4]; 20 DAT, solo Ex. 5 125 gai/ha) | % activity ([4]; solo, 125 gai/ha, 20 DAT) | % activity ([6]; 20 DAT, solo Ex. 5 125 gai/ha) | % activity ([6]; 20 DAT, solo Ex. 5 125 gai/ha (Table X66))
85%: % activity ([2]; 21 DAT, solo Ex. 5 125 gai/ha) | % activity ([2]; 21 DAT, solo Ex. 5 250 gai/ha) | % activity ([2]; solo Ex. 5 15 gai/ha, 20 DAT, 2nd series of rows) | % activity ([2]; solo Ex. 5 250 gai/ha, 20 DAT) | % activity ([2]; solo Ex. 5 250 gai/ha, 20 DAT, 2nd series of rows) | % activity ([2]; solo Ex. 5 500 gai/ha, 20 DAT) | % activity ([2]; solo Ex. 5 500 gai/ha, 20 DAT, 2nd series of rows) | % activity [2, 9] | % activity ([2]; Table X12, 20 DAT, solo Ex. 5 125 gai/ha) | % activity ([7]; solo, 62.5 gai/ha)
65% and 73%: % activity ([5]; BROST, solo Ex. 5 125 gai/ha, 20 DAT)
70% and 85%: % activity ([5]; BROST, solo Ex. 5 250 gai/ha, 20 DAT)
65%: % activity ([4]; solo Ex. 5 250 gai/ha, 20 DAT) | % activity ([5]; solo, BROST, 125 gai/ha, 20 DAT) | % activity, solo application ([6]; 125 gai/ha, 20 DAT, Table X7)
50%: % activity, solo application ([4]; 250 gai/ha, 20 DAT, Table X4) | % activity ([4]; solo, 250 gai/ha, 20 DAT) | % activity, solo application ([6]; 125 gai/ha, 20 DAT, Table X5) | % activity ([6]; solo Ex. 5 125 gai/ha, 20 DAT)
90%: % activity ([3]; 21 DAT) | % activity ([5]; BROST, solo Ex. 5 500 gai/ha, 20 DAT)
30% and 45%: % activity ([6]; solo Ex. 5 62.5 gai/ha, 20 DAT)
10%: % activity, solo application ([1]; 125 gai/ha, 20 DAT, Table X5) | % activity, solo application ([1]; 250 gai/ha, 20 DAT, Table X5)
20%: % activity ([1]; solo, 62.5 gai/ha, 20 DAT)
80%: % activity, solo application ([2]; 125 gai/ha, 20 DAT, Table X4) | % activity, solo application ([2]; 125 gai/ha, 20 DAT, Table X5) | % activity, solo application ([2]; 250 gai/ha, 20 DAT, Table X4) | % activity ([2]; solo Ex. 5 62.5 gai/ha, 20 DAT) | % activity ([2]; solo Ex. 5 62.5 gai/ha, 20 DAT, 2nd series of rows) | % activity ([2]; solo Ex. 5 250 gai/ha, 21 DAT) | % activity ([2]; solo, 250 gai/ha, 20 DAT) | % activity, solo application ([5]; 250 gai/ha, 20 DAT, BROST, Table X3) | % activity ([5]; BROST, 20 DAT, solo Ex. 5 250 gai/ha) | % activity, solo application ([7]; 125 gai/ha, Table X5) | % activity ([7]; solo Ex. 5 62.5 gai/ha) | % activity ([7]; solo Ex. 5 125 gai/ha)
40% and 20%: % activity ([1]; solo, 125 gai/ha, 20 DAT)
75%: % activity ([2]; solo, 62.5 gai/ha, 20 DAT)
40% and 45%: % activity ([1]; solo, 250 gai/ha, 20 DAT)
10% and 0%: % activity ([1]; solo Ex. 5 62.5 gai/ha, 20 DAT)
35%: % activity, solo application ([4]; 62.5 gai/ha, 20 DAT, Table X3) | % activity ([4]; solo Ex. 5 62.5 gai/ha, 21 DAT) | % activity ([5]; BROST, 20 DAT, solo Ex. 5 62.5 gai/ha) | % activity ([6]; 20 DAT, solo Ex. 5 62.5 gai/ha)
60%: % activity ([1]; Ex. 5 solo, 250 gai/ha, 21 DAT) | % activity ([3]; 20 DAT) | % activity, solo application ([4]; 250 gai/ha, 20 DAT, Table X3) | % activity, solo application ([4]; 250 gai/ha, 20 DAT, Table X7) | % activity, solo application ([6]; 250 gai/ha, 20 DAT, Table X3) | % activity ([6]; 20 DAT, solo Ex. 5 250 gai/ha) | % activity ([6]; 21 DAT, solo Ex. 5 125 gai/ha) | % activity ([6]; solo Ex. 5 250 gai/ha, 20 DAT) | % activity ([6]; solo, 250 gai/ha, 20 DAT)
55%: % activity [4, 8]
80% and 50%: % activity ([2]; solo, 125 gai/ha, 20 DAT)
20% and 35%: % activity ([4]; solo, 62.5 gai/ha, 20 DAT)
70%: % activity, solo application ([1]; 250 gai/ha, 20 DAT, Table X3) | % activity ([4]; 21 DAT, solo Ex. 5 125 gai/ha) | % activity ([6]; 21 DAT, solo Ex. 5 250 gai/ha)
70% and 80%: % activity ([5]; solo, BROST, 250 gai/ha, 20 DAT)
45%: % activity ([6]; solo, 62.5 gai/ha, 20 DAT)
80% and 83%: % activity ([2]; solo Ex. 5 125 gai/ha, 20 DAT)
30% and 53%: % activity ([5]; BROST, solo Ex. 5 62.5 gai/ha, 20 DAT)
30%: % activity, solo application ([1]; 125 gai/ha, 20 DAT, Table X7) | % activity ([1]; Ex. 5 solo, 62.5 gai/ha, 21 DAT) | % activity ([1]; Ex. 5 solo, 125 gai/ha, 21 DAT) | % activity ([1]; 20 DAT, solo Ex. 5 250 gai/ha) | % activity ([1]; 20 DAT, solo Ex. 5 250 gai/ha (Table X66)) | % activity ([1]; 21 DAT, solo Ex. 5 125 gai/ha) | % activity ([1]; solo Ex. 5 250 gai/ha, 21 DAT) | % activity ([4]; 20 DAT, solo Ex. 5 62.5 gai/ha) | % activity [4, 9] | % activity ([4]; Table X8, 20 DAT, solo Ex. 5 250 gai/ha)
35% and 30% and 48%: % activity ([4]; solo Ex. 5 62.5 gai/ha, 20 DAT)

Source: patent US10966426B2, “Herbicidal compositions comprising phenylpyrimidines” (BASF SE, priority 2016, dated 2021)
